Results from ChEMBL document CHEMBL4673352, “Discovery of AZD4573, a Potent and Selective Inhibitor of CDK9 That Enables Short Duration of Target Engagement for the Treatment of Hematological Malignancies” (J Med Chem, 2020).
pIC50: −log10 of the molar value. ≈ marks a conversion by molar mass, not a printed value. Calls of active or inactive are those of the source. No cut-off for these calls is given here.

Experiments:
[1] = target: Glycogen synthase kinase-3 beta (Homo sapiens, UniProt P49841); assay: Inhibition of GSK3beta (unknown origin) at 0.1 uM incubated for 60 mins by TR-FRET based LanthaScreen Eu kinase binding assay relative to control
Glycogen synthase kinase-3 beta, sequence (P49841 whole entry, looked up): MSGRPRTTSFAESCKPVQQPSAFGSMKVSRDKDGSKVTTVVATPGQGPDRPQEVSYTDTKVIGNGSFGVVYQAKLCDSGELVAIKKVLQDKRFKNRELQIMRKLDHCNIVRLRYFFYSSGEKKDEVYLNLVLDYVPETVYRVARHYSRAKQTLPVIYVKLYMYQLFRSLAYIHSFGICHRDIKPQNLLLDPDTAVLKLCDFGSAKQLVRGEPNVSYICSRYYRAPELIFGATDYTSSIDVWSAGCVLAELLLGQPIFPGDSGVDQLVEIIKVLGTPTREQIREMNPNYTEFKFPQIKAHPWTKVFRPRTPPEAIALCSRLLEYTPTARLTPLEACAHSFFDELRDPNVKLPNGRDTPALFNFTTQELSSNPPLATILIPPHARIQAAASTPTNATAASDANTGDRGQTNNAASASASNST

[2] = target: Glycogen synthase kinase-3 alpha (Homo sapiens, UniProt P49840); assay: Inhibition of kinase tracer 236 binding to N-terminal GST-tagged human full length GSK3alpha expressed in baculovirus expression system by Lanthascreen Eu kinase binding assay; settings: dose 0.1 µM, time 60.0 min
Glycogen synthase kinase-3 alpha, sequence (P49840 2-483 limits assumed): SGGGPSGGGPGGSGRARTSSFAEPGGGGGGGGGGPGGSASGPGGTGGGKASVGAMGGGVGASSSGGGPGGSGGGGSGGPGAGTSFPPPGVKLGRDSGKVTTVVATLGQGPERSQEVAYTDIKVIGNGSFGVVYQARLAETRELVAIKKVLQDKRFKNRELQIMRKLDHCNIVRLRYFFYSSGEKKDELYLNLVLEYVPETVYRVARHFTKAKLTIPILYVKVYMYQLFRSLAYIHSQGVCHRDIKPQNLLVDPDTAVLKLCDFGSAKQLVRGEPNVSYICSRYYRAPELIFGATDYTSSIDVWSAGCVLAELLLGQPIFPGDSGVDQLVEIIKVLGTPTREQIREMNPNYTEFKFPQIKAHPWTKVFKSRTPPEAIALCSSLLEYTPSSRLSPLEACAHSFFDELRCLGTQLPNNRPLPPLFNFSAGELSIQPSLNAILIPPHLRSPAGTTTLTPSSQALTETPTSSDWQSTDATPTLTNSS

[3] = target: Mitogen-activated protein kinase kinase kinase kinase 4 (Homo sapiens) (UniProt O95819); assay: Inhibition of recombinant human GST-tagged MAP4K4 catalytic domain expressed in baculovirus expression system at 1 uM by Lanthascreen assay relative to control; settings: time 60.0 min
[4] = Clearance in cynomolgus monkey plasma at 0.46 umol/kg, iv administered over 0.25 hrs formulated as solution in DMA/PEG400/Tween80; assay type: ADME, organism-based, Macaca fascicularis; settings: dose 0.46 µmol/kg
[5] = target: Cyclin-dependent kinase 9 (Mus musculus) (UniProt Q99J95); assay: In-vivo inhibition of CDK9 in CB17 SCID mouse xenografted with human NOMO1 cells assessed as reduction in RNA Polymerase 2 CTD phosphorylation at Ser2 residues administered intraperitoneally twice at 2 hrs dosing interval with 2 days on and 5 days off dosing schedule by Western blot analysis; assay type: functional; settings: dose 5-15 mg/kg
Cyclin-dependent kinase 9 (Mus musculus), sequence (Q99J95 whole entry): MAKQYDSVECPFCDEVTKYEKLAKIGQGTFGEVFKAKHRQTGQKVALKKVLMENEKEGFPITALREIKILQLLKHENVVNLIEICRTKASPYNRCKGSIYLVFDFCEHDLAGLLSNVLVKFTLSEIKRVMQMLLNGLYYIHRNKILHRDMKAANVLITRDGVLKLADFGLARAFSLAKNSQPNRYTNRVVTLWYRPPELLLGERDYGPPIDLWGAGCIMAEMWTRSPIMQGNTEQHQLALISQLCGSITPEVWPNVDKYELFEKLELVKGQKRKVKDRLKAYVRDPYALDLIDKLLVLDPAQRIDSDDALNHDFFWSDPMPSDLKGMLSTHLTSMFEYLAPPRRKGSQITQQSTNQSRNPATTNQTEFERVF

[6] = Intrinsic clearance in monkey cryopreserved hepatocytes assessed per million cells […]; assay type: ADME, cell-based, Macaca mulatta, Hepatocyte; settings: rhesus monkey, read-out: CLH
MV4-11 [7] = assay: Antitumor activity against human MV4-11 cells xenografted in CB17 SCID mouse assessed as tumor growth inhibition at 5 mg/kg, ip BID administered at 2 hrs dose interval with 2 days on and 5 days off dosing schedule measured 33 days post initial dose; assay type: functional; settings: MV4-11, ip, 792 h, time 33 day, read-out: TGI
[8] = target: T1, Mitogen-activated protein kinase 8 (Homo sapiens, UniProt P45983); assay: Inhibition of human recombinant His-tagged JNK1 expressed in baculovirus expression system at 0.1 uM incubated for 60 mins by TR-FRET based LanthaScreen Eu kinase binding assay relative to control
T1 sequence (P45983 whole entry): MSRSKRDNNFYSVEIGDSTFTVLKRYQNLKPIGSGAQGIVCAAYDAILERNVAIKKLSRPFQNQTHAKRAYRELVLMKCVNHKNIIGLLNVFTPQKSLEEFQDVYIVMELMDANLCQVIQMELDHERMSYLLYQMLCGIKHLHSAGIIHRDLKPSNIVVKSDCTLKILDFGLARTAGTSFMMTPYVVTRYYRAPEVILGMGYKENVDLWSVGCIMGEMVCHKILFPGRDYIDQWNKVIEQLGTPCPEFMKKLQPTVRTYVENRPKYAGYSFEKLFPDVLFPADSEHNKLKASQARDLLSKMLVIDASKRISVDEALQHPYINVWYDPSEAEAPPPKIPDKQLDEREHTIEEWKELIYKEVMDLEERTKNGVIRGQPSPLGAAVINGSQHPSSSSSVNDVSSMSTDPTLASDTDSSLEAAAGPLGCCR

[9] = Half-life in cynomolgus monkey at 0.46 umol/kg, iv administered over 0.25 hrs formulated as solution in DMA/PEG400/Tween80; assay type: ADME, organism-based, Macaca fascicularis; settings: in vivo, dose 0.46 µmol/kg
[10] = target: T1, Mitogen-activated protein kinase 8; assay: Inhibition of human recombinant full-length JNK1 using ATF2 as substrate at1 uM incubated for 40 mins in presence of [gamma32P]-ATP by scintillation counting method relative to control; settings: dose 1.0 µM
[11] = Drug metabolism in human hepatocytes assessed 3-(4-(2-((1S,3R)-3-acetamidocyclohexanecarboxamido)-5-chloropyridin-4-yl)-1H-pyrazol-5-yl)-2,2-dimethylpropanoic acid metabolite formation; assay type: ADME, cell-based, Hepatocyte
MV4-11 [12] = assay: Antitumor activity against human MV4-11 cells xenografted in ip dosed CB17 SCID mouse assessed as cell death administered twice daily at 2 hrs dose interval with 2 days on and 5 days off dosing schedule; assay type: functional, organism-based
NOMO-1 [13] = assay: Antitumor activity against human NOMO1 cells xenografted in CB17 SCID mouse assessed as cell death at 5 mg/kg, ip BID administered at 2 hrs dosing interval with 2 days on and 5 days off dosing schedule; assay type: functional, organism-based
[14] = target: Insulin receptor (Homo sapiens) (UniProt P06213); assay: Inhibition of human recombinant INSR using KKKSPGEYVNIEF as substrate at 1 uM incubated for 40 mins in presence of [gamma32P]-ATP by scintillation counting method relative to control
Insulin receptor (Homo sapiens), sequence (P06213 28-758 limits assumed): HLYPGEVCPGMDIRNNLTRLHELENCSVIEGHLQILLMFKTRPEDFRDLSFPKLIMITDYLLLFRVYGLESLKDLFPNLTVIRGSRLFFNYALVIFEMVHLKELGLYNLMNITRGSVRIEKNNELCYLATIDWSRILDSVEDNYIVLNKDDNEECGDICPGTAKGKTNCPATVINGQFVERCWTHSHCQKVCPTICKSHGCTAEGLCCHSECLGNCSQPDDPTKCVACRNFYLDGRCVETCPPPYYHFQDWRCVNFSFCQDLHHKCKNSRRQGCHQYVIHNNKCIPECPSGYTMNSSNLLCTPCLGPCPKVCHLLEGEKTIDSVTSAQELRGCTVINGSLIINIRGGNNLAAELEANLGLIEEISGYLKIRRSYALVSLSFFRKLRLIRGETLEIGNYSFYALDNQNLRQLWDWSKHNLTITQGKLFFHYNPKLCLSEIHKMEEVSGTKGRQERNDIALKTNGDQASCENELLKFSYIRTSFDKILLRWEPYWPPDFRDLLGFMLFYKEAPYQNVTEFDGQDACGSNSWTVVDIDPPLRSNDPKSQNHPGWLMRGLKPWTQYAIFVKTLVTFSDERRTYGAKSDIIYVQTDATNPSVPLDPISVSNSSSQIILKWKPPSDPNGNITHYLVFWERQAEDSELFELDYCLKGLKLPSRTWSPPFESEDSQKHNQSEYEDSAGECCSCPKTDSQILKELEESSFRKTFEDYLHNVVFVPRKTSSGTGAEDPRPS
Insulin receptor (Homo sapiens), sequence (P06213 763-1382 limits assumed): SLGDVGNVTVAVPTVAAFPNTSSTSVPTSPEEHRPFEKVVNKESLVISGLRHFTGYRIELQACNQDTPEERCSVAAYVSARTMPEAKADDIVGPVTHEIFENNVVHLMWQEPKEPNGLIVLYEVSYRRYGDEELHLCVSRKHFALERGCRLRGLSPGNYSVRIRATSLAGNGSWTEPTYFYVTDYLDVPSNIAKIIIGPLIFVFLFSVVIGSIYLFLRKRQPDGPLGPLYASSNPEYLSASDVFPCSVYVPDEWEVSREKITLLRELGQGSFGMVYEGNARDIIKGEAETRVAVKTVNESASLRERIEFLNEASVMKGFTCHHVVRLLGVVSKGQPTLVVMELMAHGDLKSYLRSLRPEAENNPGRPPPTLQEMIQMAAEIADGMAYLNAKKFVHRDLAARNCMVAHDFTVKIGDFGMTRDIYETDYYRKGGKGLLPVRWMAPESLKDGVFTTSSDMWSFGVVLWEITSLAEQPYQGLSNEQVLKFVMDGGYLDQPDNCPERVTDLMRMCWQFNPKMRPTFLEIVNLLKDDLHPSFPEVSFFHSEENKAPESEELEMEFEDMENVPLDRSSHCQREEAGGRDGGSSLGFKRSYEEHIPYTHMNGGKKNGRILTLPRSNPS

[15] = Drug metabolism in human hepatocytes assessed as (1S,3R)-3-acetamido-N-(5-chloro-4-(5-(3-hydroxy-2,2-dimethylpropyl)-1H-pyrazol-4-yl)pyridin-2-yl)cyclohexanecarboxamide metabolite formation; assay type: ADME, cell-based, Hepatocyte
NOMO-1 [16] = assay: Antitumor activity against human NOMO1 cells xenografted in CB17 SCID mouse assessed as tumor growth inhibition at 5 mg/kg, ip BID administered at 2 hrs dosing interval with 2 days on and 5 days off dosing schedule measured 12 days post initial dose; assay type: functional; settings: NOMO-1, ip, 288 h, time 12 day, read-out: TGI
[17] = target: Casein kinase I isoform gamma-1 (Homo sapiens, UniProt Q9HCP0); assay: Inhibition of CK1gamma1 (unknown origin) in presence of 5 mM ATP
Casein kinase I isoform gamma-1, sequence (Q9HCP0 whole entry, canonical isoform): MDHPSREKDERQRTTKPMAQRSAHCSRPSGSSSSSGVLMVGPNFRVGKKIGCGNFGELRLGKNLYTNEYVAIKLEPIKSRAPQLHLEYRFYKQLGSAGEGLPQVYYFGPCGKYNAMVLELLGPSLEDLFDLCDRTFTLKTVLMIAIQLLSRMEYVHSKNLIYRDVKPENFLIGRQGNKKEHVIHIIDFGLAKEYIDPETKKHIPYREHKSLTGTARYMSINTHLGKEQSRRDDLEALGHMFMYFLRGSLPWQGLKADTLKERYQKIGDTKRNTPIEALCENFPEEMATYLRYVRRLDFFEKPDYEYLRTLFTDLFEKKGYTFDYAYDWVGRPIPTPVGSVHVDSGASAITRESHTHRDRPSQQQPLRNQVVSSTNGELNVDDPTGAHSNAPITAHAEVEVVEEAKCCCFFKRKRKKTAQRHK

[18] = target: Dual specificity tyrosine-phosphorylation-regulated kinase 2 (Homo sapiens, UniProt Q92630); assay: Inhibition of DYRK2 (unknown origin) in presence of 5 mM ATP
Dual specificity tyrosine-phosphorylation-regulated kinase 2, sequence (Q92630 whole entry): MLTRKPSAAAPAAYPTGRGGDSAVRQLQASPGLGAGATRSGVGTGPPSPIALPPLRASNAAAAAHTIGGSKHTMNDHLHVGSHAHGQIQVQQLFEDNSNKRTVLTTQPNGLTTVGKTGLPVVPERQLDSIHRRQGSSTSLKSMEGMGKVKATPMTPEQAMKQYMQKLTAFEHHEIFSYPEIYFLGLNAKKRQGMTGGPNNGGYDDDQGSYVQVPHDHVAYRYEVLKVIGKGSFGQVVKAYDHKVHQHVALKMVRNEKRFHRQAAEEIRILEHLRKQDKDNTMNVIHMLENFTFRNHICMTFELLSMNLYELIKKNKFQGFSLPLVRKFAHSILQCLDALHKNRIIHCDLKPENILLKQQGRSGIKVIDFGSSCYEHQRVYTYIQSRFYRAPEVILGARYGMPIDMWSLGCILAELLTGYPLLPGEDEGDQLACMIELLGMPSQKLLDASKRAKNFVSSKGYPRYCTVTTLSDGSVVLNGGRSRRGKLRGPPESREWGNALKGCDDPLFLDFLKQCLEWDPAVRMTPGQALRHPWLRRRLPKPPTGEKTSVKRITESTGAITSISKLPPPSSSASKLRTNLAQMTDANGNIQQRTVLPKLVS

[19] = Drug metabolism in human liver microsomes assessed as (1S,3R)-3-acetamido-N-(5-fluoro-4-(6-hydroxy-5,5-dimethyl-5,6-dihydro-4H-pyrrolo[1,2-b]pyrazol-3-yl)pyridin-2-yl)cyclohexanecarboxamide formation at 10 uM measured after 1 hr in presence of NADPH by LC-UV-MS analysis; assay type: ADME, Microsome
[20] = Drug metabolism in human liver microsomes assessed as 3-(4-(2-((1S,3R)-3-acetamidocyclohexanecarboxamido)-5-fluoropyridin-4-yl)-1H-pyrazol-5-yl)-2,2-dimethylpropanoic acid formation at 10 uM measured after 1 hr in presence of NADPH by LC-UV-MS analysis; assay type: ADME, Microsome
[21] = Half-life in Beagle dog at […], iv administered over 0.25 hrs formulated as solution in DMSO/Captisol; assay type: ADME, organism-based, Canis lupus familiaris; settings: in vivo, dose 0.24 µmol/kg
Homo sapiens = species: Homo sapiens; assay: Selectivity ratio of IC50 for CDK5 (unknown origin) in presence of 5 mM ATP to IC50 for Inhibition of recombinant full length human N-terminal GST-fused CDK9 (1 to 372 residues)/His-tagged CyclinT1 (1 to 726 residues) expressed in baculovirus infected insect cells
CDK9/cyclin T1 = CDK9/cyclin T1 (Homo sapiens, UniProt O60563+P50750); assay: Binding affinity to human CDK9/CyclinT assessed as dissociation rate constant by surface plasmon resonance analysis; assay type: protein-complex assay
CDK9/cyclin T1, sequence (O60563 whole entry): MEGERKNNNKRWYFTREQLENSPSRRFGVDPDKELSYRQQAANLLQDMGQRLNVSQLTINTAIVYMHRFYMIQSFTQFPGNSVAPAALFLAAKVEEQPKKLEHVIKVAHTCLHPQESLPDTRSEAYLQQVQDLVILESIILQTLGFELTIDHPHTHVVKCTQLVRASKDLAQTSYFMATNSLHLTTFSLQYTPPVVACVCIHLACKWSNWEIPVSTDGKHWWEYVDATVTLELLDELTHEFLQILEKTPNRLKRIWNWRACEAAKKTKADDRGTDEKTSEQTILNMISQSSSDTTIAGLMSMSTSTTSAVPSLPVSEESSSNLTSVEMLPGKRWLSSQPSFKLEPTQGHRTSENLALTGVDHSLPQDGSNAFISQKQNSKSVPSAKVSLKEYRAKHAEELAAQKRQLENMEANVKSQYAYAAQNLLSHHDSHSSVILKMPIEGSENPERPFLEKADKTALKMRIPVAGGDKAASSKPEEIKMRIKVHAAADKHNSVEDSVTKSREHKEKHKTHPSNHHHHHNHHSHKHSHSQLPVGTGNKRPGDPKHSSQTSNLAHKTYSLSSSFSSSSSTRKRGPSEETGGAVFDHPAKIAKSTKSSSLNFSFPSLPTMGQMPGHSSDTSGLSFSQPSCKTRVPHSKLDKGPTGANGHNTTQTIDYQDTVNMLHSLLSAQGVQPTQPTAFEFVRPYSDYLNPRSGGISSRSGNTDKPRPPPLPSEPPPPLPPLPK
CDK9/cyclin T1, sequence (P50750 whole entry): as the sequence (Q99J95 whole entry) above, with T17S, K37R, Q40K, K258N, F262Y counted along it

[22] = target: Cyclin-dependent kinase 9 (Homo sapiens, UniProt P50750)
Cyclin-dependent kinase 9, sequence (P50750 whole entry): as the sequence (Q99J95 whole entry) above, with T17S, K37R, Q40K, K258N, F262Y counted along it

[23] = Clearance in mouse plasma at […], iv formulated as solution; assay type: ADME, organism-based; settings: dose 4.8 µmol/kg
[24] = Drug metabolism in human liver microsome assessed as (1S,3R)-3-acetamido-N-(5-chloro-4-(5-(4-hydroxybutyl)-1H-pyrazol-4-yl)pyridin-2-yl)cyclohexanecarboxamide formation at 10 uM measured after 1 hr in presence of NADPH by LC-UV-MS analysis; assay type: ADME; settings: microsomes
[25] = Solubility of compound in pH 7.4 PBS buffer using crystalline form of sample; assay type: physicochemical
[26] = Clearance in Beagle dog plasma at 5.2 umol/kg, iv administered over 0.25 hrs formulated as solution in 5% DMSO; assay type: ADME, organism-based, Canis lupus familiaris; settings: dose 5.2 µmol/kg
[27] = Drug metabolism in human hepatocytes assessed as (1S,3R)-3-acetamido-N-(5-chloro-4-(7-hydroxy-4,5,6,7-tetrahydropyrazolo[1,5-a]pyridin-3-yl)pyridin2-yl)cyclohexanecarboxamide metabolite formation; assay type: ADME, cell-based, Hepatocyte
[28] = Drug metabolism in human hepatocytes assessed as (1S,3R)-3-acetamido-N-(5-chloro-4-(5-(4-hydroxybutyl)-1H-pyrazol-4-yl)pyridin-2-yl)cyclohexanecarboxamide metabolite formation; assay type: ADME, cell-based, Hepatocyte
[29] = Solubility of compound in pH 4 0.1 M acetate buffer using crystalline form of sample; assay type: physicochemical

`CC(=O)N[C@@H]1CCC[C@H](C(=O)Nc2cc(-c3cnn4c3CC(C)(C)C4)c(Cl)cn2)C1` [ZEMIRCICLIB] showed an inhibition [1] of 100%, an inhibition [2] of 96% and an inhibition [3] of 85%. For the same molecule, the clearance [4] was 19 mL/min/kg, the inhibition [5] was “Dose-dependent effect” and the hepatocyte CLint [6] was 32 µL/min/1e6 cells. For the same molecule, the inhibition in vivo at 5 mg/kg (MV4-11 [7]) was 97%, the inhibition [8] was 84% and the half-life [9] was 53.4 min. For the same molecule, the inhibition [10] was 90%, the Drug metabolism [11] was “Metabolite_Detected” and the Activity (MV4-11 [12]) was “Dose-dependent effect”. For the same molecule, the Activity (NOMO-1 [13]) was “Active”, the inhibition [14] was 83% and the Drug metabolism [15] was “Metabolite_Detected”. The inhibition in vivo at 5 mg/kg (NOMO-1 [16]) was 65%, the pIC50 [17] was 5.26 and the pIC50 [18] was 5.06.

In the case of `CC(=O)N[C@@H]1CCC[C@H](C(=O)Nc2cc(-c3cnn4c3CC(C)(C)C4)c(F)cn2)C1`, the Drug metabolism [19] was “Metabolite_Detected”, the Drug metabolism [20] was “Metabolite_Detected” and the half-life at 0.25 h [21] was 25.8 min. For the same molecule, the Ratio IC50 (Homo sapiens) was 16, the koff (CDK9/cyclin T1) was 569 10^-6/s and the pIC50 [22] was less than 5.52.

With `CC(=O)N[C@@H]1CCC[C@H](C(=O)Nc2cc(-c3cnn4c3CCCC4)c(Cl)cn2)C1` the clearance [23] was 65 mL/min/kg, the Drug metabolism [24] was “Metabolite_Detected” and the solubility thermodynamic [25] was 94 µg/mL (≈ 226 µM). For the same molecule, the clearance [26] was 30 mL/min/kg, the Drug metabolism [27] was “Metabolite_Detected” and the Drug metabolism [28] was “Metabolite_Detected”. The solubility thermodynamic [29] was 210 µg/mL (≈ 505 µM).
